{"source": "patent US20240165097A1", "about": "“PHARMACEUTICAL COMPOSITION FOR THE TREATMENT OF ALZHEIMER'S DISEASE OR DEMENTIA” (Heptares Therapeutics Limited, priority 2021, published 2024)", "key": {"[1]": {"test_system": "patients with mild-to-moderate AD", "assay": "Example D: Cogstate neuropsychological test battery", "format": "in vivo, human", "excerpt": "(§1) Exploratory PD effects of HTL0018318 were examined via both behavioural (Cogstate neuropsychological test battery [NTB]) tests of cognitive function and electrophysiological (electroencephalogram [EEG] and evoked response potentials [ERPs]) biomarkers. Further details of each biomarker/test and outcome variables are provided below. Twelve-item neuropsychiatric inventory (NPI-12) scores were used to evaluate neuropsychiatric symptoms.\nExploratory pharmacodynamic endpoints (Cogstate tests and EEG/evoked response potential [ERP] biomarkers) were evaluated at screening (practice sessions) and baseline visits, and on Day 28±1. While this study was not powered to detect PD effects of small to moderate ESs, the study sample size provided approximately 80% power to detect a large ES of 0.97 for these endpoints using a significance level of 0.10.\nA Cogstate neuropsychological test battery (NTB; http://www.Cogstate.com/) was administered as a computerised test, with the following cognitive tasks included in the battery. The total duration of the battery was approximately 30-40 minutes: • Identification (IDN)—reaction time (attention) • International shopping list immediate recall (ISL) and international shopping list-delayed recall (ISRL)—number of words recalled (episodic memory/verbal learning) • One back test (ONB)—accuracy and reaction time (working memory/executive function) • Groton maze learning (GML; forward and reverse maze learning)—accuracy (executive function)\nThe IDN is a measure of choice reaction time. In this task, an event (ie, a card turning face-up) occurs in the centre of the computer screen, and the patient must decide “YES” or “NO” as to whether or not this event meets a predefined and unchanging criterion (is the colour of the card red?). For this test, the primary dependent measure of the study was mean of the log10 transformed reaction times for correct responses.\nThe ISL and ISRL are a computer controlled verbal learning/episodic memory test. In this test, patients are read a list of 12 words. Each word is a concrete noun and describes an item of food that is found commonly in the culture/society in which testing is occurring. The examiner tells the patients “I am going to read to you a list of items I want you to get from the supermarket/store/market/shop”. After the 12 words have been read, the patient tries to recall as many of the words as they can immediately (ie, ISL immediate recall). Once they can recall no more words, the same list is read a second time with the words in the same order, after the same instruction. The process of reading the list and waiting for responses occurs 3 times. At the completion of the computerised battery (and with a minimum 20-minute delay) the patient is asked to recall as many of the items as they can from the shopping list (ISL delayed recall; ie, ISRL). For both ISL and ISRL tests, the primary dependent measure was number of words recalled.\nThe ONB memory task is a valid measure of working memory. In this task, the patient is shown a single stimulus in the centre of the computer screen (ie, a card turns face-up). He or she must decide “YES” or “NO” as to whether or not the current card matches the card that was seen on the immediately previous trial. The software measures the speed and accuracy of each response. For this test, the primary dependent measure of the study was arcsine transformation of the proportion of correct responses (i.e. accuracy).\nThe modified GML evaluates short-term memory. The test begins with a chase task to allow the patient to become familiar with the task context. The patient is shown a 10×10 grid of tiles on a computer touch screen. The patient is instructed to chase a moving tile around the grid. Once the patient understands the rules, he or she can proceed onto the timed chase test, where the patient must chase the target for 30 seconds. For the GML, the patient is shown the same 10×10 grid of tiles on a computer touch screen. […]"}, "[2]": {"test_system": "patients with mild-to-moderate AD", "assay": "Example D: twelve-item neuropsychiatric inventory (NPI-12)", "format": "in vivo, human", "method": "as §1\nStatistical evaluation was performed using Statistical analysis software (SAS®, SAS Institute, Cary, NC). Changes from baseline in vital signs were analysed using a mixed model for repeated measures with fixed effects for baseline, treatment, time-point and treatment by time-point interaction. The exploratory PD endpoints were analysed using an analysis of covariance with change from baseline as the dependent variable, and baseline and treatment as covariates. The least square means (LSM) for each dose (and difference from placebo) are presented with the 90% CI, P-value, and ES. ES was calculated as the LSM difference from placebo divided by the pooled standard deviation. PD data were considered clinically meaningful when P-values were <0.10 and ESs were >0.4 (ie, moderate to large ES)."}}, "data": [{"molecule": "CCOC(=O)N1C2CCC1CC(N1CCC3(CC1)CNC(=O)C3)C2", "note": "(centres unmarked) [HTL0018318, ethyl 3-(3-oxo-2,8-diazaspiro[4.5]dec-8-yl)-8-azabicyclo[3.2.1]octane-8-carboxylate]", "values": [{"measurement": "IDN attention (reaction time), ES", "setting": "[1]; 15 mg, Day 28", "value": 0.62}, {"measurement": "IDN attention (reaction time), LSM difference from placebo", "setting": "[1]; 15 mg, Day 28", "value": 0.11}, {"measurement": "ISL composite (immediate and delayed recall), LSM difference from placebo", "setting": "[1]; 25 mg, Day 28", "value": 0.21}, {"measurement": "ISL composite, ES", "setting": "[1]; 25 mg, Day 28", "value": 0.48}, {"measurement": "ISL-delayed recall, ES", "setting": "[1]; 25 mg, Day 28", "value": 0.49}, {"measurement": "ISL-delayed recall, LSM difference from placebo", "setting": "[1]; 25 mg, Day 28", "value": 0.65}, {"measurement": "ISL-immediate recall, ES", "setting": "[1]; 25 mg, Day 28", "value": 0.34}, {"measurement": "ISL-immediate recall, LSM difference from placebo", "setting": "[1]; 25 mg, Day 28", "value": 1.11, "unit": "words"}, {"measurement": "IDN attention (reaction time)", "setting": "[1]; 5 and 25 mg, Day 28", "value": "Non-significant, improvements"}, {"measurement": "ONB reaction time or accuracy, GML task (forward or reverse) performance", "setting": "[1]; any HTL0018318 dose", "value": "no statistically significant differences"}, {"measurement": "NPI-12 total score, ES", "setting": "[2]; 5 mg", "value": -0.73}, {"measurement": "NPI-12 total score, LSM difference from placebo", "setting": "[2]; 5 mg", "value": "−1.79"}, {"measurement": "NPI-12 total score, ES", "setting": "[2]; 15 mg", "value": "−0.54"}, {"measurement": "NPI-12 total score, ES", "setting": "[2]; 25 mg", "value": "−0.53"}]}]}
